pIC50: −log10 of the molar value.
Columns and labels:
human mGluR5d = biological target: T1, human mGluR5d (Homo sapiens, UniProt P41594); assay: FLIPR assay, mGluR5 antagonism (intracellular calcium mobilization); format: cell-based; conditions: cells expressing human mGluR5d; read-out: FLIPR hmGluR5d
T1 construct: expressed in transfected cells; the IP3 assay names GHEK cells stably expressing human mGluR5d
Text: The properties of the compounds of the invention can be analyzed using standard assays for pharmacological activity. Examples of glutamate receptor assays are well known in the art as described in for example Aramori et al., Neuron 8:757 (1992), Tanabe et al., Neuron 8:169 (1992), Miller et al., J. Neuroscience 15: 6103 (1995), Balazs, et al., J. Neurochemistry 69:151 (1997). The methodology described in these publications is incorporated herein by reference. Conveniently, the compounds of the invention can be studied by means of an assay (FLIPR) that measures the mobilization of intracellular calcium, [Ca^2+]i in cells expressing mGluR5 or another assay (IP3) that measures inositol phosphate turnover.
Cells expressing human mGluR5d as described in WO97/05252 are seeded at a density of 100,000 cells per well on collagen coated clear bottom 96-well plates with black sides and experiments are done 24 h following seeding. […] The fluorescence signal is sampled 50 times at 1 second intervals followed by 3 samples at 5 second intervals immediately after each of the two additions. Responses are measured as the difference between the peak height of the response to agonist, less the background fluorescence within the sample period. […]

[1] = Determination of brain to plasma ratio in rat; format: in vivo; conditions: brain and plasma, female Sprague Dawley rats, read-out: Brain/Plasma Ratio of compound in Rat
Experimental: Brain to plasma ratios are estimated in female Sprague Dawley rats. The compound is dissolved in water or another appropriate vehicle. For determination of brain to plasma ratio the compound is administrated as a subcutaneous, or an intravenous bolus injection, or an intravenous infusion, or an oral administration. At a predetermined time point after the administration a blood sample is taken with cardiac puncture. The rat is terminated by cutting the heart open, and the brain is immediately retained. The blood samples are collected in heparinized tubes and centrifuged within 30 minutes, in order to separate the plasma from the blood cells. The plasma is transferred to 96-well plates and stored at −20° C. until analysis. The brains are divided in half, and each half is placed in a pre-tarred tube and stored at −20° C. until analysis. Prior to the analysis, the brain samples are thawed and 3 ml/g brain tissue of distilled water is added to the tubes. The brain samples are sonicated in an ice bath until the samples are homogenized. Both brain and plasma samples are precipitated with acetonitrile. After centrifugation, the supernatant is diluted with 0.2% formic acid. […] After reconstitution of the residuals the samples are ready for injection onto the HPLC column.

T1 sequence (P41594 21-942 isoform P41594-3 limits assumed): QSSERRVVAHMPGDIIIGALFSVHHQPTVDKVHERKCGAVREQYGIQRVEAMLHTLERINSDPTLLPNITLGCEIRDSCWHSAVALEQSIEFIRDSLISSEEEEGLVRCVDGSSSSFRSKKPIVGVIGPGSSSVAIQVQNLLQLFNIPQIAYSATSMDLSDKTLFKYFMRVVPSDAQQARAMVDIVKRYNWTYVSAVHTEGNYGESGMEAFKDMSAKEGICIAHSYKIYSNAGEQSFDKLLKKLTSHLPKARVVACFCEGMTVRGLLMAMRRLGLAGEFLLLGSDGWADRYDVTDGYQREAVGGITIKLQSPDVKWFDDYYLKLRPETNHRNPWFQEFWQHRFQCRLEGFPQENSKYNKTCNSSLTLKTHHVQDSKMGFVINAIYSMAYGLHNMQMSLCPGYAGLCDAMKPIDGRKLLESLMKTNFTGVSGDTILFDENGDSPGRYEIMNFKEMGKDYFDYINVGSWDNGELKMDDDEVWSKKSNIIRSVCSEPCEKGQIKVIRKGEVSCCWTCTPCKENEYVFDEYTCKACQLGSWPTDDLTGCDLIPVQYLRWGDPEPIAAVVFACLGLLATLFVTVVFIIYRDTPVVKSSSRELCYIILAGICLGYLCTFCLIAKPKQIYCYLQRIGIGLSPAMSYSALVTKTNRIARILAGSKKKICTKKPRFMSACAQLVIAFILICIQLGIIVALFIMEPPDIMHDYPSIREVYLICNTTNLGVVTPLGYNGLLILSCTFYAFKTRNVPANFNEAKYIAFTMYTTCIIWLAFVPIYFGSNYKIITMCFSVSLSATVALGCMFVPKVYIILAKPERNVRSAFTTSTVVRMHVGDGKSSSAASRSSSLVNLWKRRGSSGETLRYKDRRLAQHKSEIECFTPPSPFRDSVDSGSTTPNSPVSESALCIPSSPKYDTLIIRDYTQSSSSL

Row | pIC50 (human mGluR5d) | Kp [1] | SMILES
1 | 7.33 | 0.06 | Cc1cc(-c2nnc(N3CCC[C@@H]3c3cc(-c4cccc(C#N)c4)on3)n2C)ccn1 [Example 12.4, 3-(3-{(R)-1-[4-Methyl-5-(2-methyl-pyridin-4-yl)-4H-[1,2,4]triazol-3-yl]-pyrrolidin-2-yl}-isoxazol-5-yl)-benzonitrile]
2 | 7.07 | 0.05 | Cn1c(-c2cccnc2)nnc1N1CCC[C@@H]1c1cc(-c2cccc(C#N)c2)on1 [Example 12.6, 3-{3-[(R)-1-(4-Methyl-5-pyridin-3-yl-4H-[1,2,4]triazol-3-yl)-pyrrolidin-2-yl]-isoxazol-5-yl}-benzonitrile]

From patent US20070259923A1, “MGluR5 modulators IV” (AstraZeneca AB, priority 2006, published 2007)
